# Read-outs that look alike come from different tables or passages of the source. Square brackets hold non-standard residues; d marks the D form. Ends that are not written are not given here. Peptide text beside a SMILES is read from it. * marks the point of attachment. 5TAMRA = CN(C)c1ccc2c(c1)Oc1cc(N(C)C)ccc1C21OC(=O)c2cc(C(=O)*)ccc21
# Tested on: E. coli (MG1655)
# Type: cell-based, Escherichia coli
# Description: For all experiments and E. coli strains, cells were grown in a medium (M9gluCAAT) with M9 salts (33.7 mM Na2HPO4, 22mM KH2PO4, 8.55 mM NaCl, 9.35 mM NH4Cl), 0.2% (w/v) glucose, 0.4% (w/v) casamino acids, 1 mM MgSO4, 0.3 mM CaCl2, 1 μg/mL thiamine, and trace elements (13.4 mM ethylene-diamine-tetra-acetic-acid (EDTA), 3.1 mM FeCl3-6H2O, 0.62 mM ZnCl2, 76 μM CuCl2-2H2O, 42 μM CoCl2-2H2O, 162 μM H3BO3, 8.1 μM MnCl2-4H2O). Prior to every experiment, cells were first inoculated into M9gluCAAT and grown to stationary phase at 37°C. For all assays except the biofilm experiments, the culture was diluted to 1/10,000 or more in fresh medium and grown at 37°C until it reached an optical density at 600 nm (OD) of 0.2–0.4. For the biofilm experiments, cells were grown in M9gluCAAT supplemented with 100 μg/mL ampicillin to maintain the GFP-expressing plasmid. The overnight stationary-phase cultures were then diluted into the same medium to an OD of 0.015. See below for details on biofilm growth.
# Except for the biofilm experiments, the strains used in this study were derived from MG1655 (ATCC 47076), which was used to estimate the minimum inhibitory concentration (MIC) for all the studied peptides (or peptoids) using a microplate reader (Figure 1A). To detect the timing of outer and inner membrane permeabilization to proteins, strain CJW7845 was constructed to carry two freely diffusing fluorescent proteins: mScarlet-I in the periplasm and mTagBFP2 in the cytoplasm. Construction of CJW7845 was done by transforming pBAD-mTagBFP2 plasmid (Addgene #34632, a gift from Vladislav Verkhusha; ([Subach et al., 2011])) into an E. coli strain expressing a periplasmic mScarlet-I reporter ([Cañas-Duarte 2021]), as previously described ([Chung et al., 1989]). Transformants were restreaked on fresh selection plates and confirmed via microscopy.
# To determine the minimal inhibitory concentration (MIC) of the selected AMPs against either MG1655 or ATCC 25922 E. coli strains, exponentially growing cells were diluted in fresh medium to an OD = 10^−6 (~500 cells/mL) and mixed 50:50 with titrated AMP concentrations (which were chosen to be over a range that included the MIC) in a 96-well plate (flat bottom with low evaporation lid, 3595, Corning, Arizona, USA). A final OD of 5 × 10^−7 corresponds to ~250 cells/mL. OD curves were sampled every 5 min for a total of 48 h using a microplate reader (BioTek Synergy 2, Agilent Technologies Inc., California, USA). Raw data were exported as a text file and analysed using a custom-written Python script (microplate_reader_analysis.py). To measure maximum growth rates, the log(OD) was fitted using a linear regression over a 12-point moving window (60 min), which provides the instantaneous growth rate (log(OD)/h), from which the global maximum was computed. The MIC was defined as the minimum AMP concentration for which the maximum growth rate was < 0.2 log(OD)/h within the first 20 h of incubation. Each MIC experiment was performed independently at least three times (with at least two technical replicates each), and the mode across all replicates was taken as the final MIC; in the rare cases of a tie, an additional replicate was performed, which was sufficient to resolve it.
# [1] = E. coli MG1655, M9gluCAAT, 37°C, 20 h, inoculum ~250 cells/mL, mode across three biological replicates
compound,measurement,setting,value
CC[C@H](C)[C@H](NC(=O)CNC(=O)[C@H](CC(=O)O)NC(=O)[C@H](CCCNC(=N)N)NC(=O)[C@@H](NC(=O)[C@H](CC(N)=O)NC(=O)[C@H](CCC(N)=O)NC(=O)CNC(=O)[C@@H](NC(=O)[C@H](CCCCN)NC(=O)[C@H](CCC(=O)O)NC(=O)[C@@H](NC(=O)[C@H](CCCCN)NC(=O)[C@H](CCCCN)NC(=O)[C@H](Cc1ccccc1)NC(=O)[C@H](CC(C)C)NC(=O)[C@H](CCCCN)NC(=O)[C@H](Cc1c[nH]c2ccccc12)NC(=O)[C@H](CCCCN)NC(=O)c1ccc2c(c1)C(=O)OC21c2ccc(N(C)C)cc2Oc2cc(N(C)C)ccc21)[C@@H](C)CC)C(C)C)[C@@H](C)CC)C(=O)N[C@H](C(=O)N[C@@H](CCCCN)C(=O)N[C@@H](C)C(=O)NCC(=O)N1CCC[C@H]1C(=O)N[C@@H](C)C(=O)N[C@H](C(=O)N[C@@H](C)C(=O)N[C@H](C(=O)N[C@H](C(=O)NCC(=O)N[C@@H](CCC(N)=O)C(=O)N[C@@H](C)C(=O)N[C@H](C(=O)N[C@@H](CCC(N)=O)C(=O)N[C@H](C(=O)N[C@@H](C)C(=O)N[C@@H](CCCCN)C(N)=O)[C@@H](C)CC)[C@@H](C)O)C(C)C)C(C)C)C(C)C)[C@@H](C)CC [5-TAMRA-CecA] (5TAMRA-KWKLFKKIEKVGQNIRDGIIKAGPAVAVVGQATQIAK-NH2; C-terminus assumed),MIC (mode MIC) of 5-TAMRA-labeled AMP derivatives,"MG1655, 20 h",2 µM
CC[C@H](C)[C@H](NC(=O)[C@H](CCCNC(=N)N)NC(=O)[C@@H]1CCCN1C(=O)[C@@H]1CCCN1C(=O)[C@H](CC(C)C)NC(=O)[C@H](CCCNC(=N)N)NC(=O)[C@@H]1CCCN1C(=O)[C@@H]1CCCN1C(=O)[C@H](Cc1ccccc1)NC(=O)[C@H](Cc1ccccc1)NC(=O)[C@@H]1CCCN1C(=O)[C@@H]1CCCN1C(=O)[C@@H]1CCCN1C(=O)[C@H](CCCNC(=N)N)NC(=O)[C@@H]1CCCN1C(=O)[C@H](CCCNC(=N)N)NC(=O)[C@@H]1CCCN1C(=O)[C@H](CC(C)C)NC(=O)[C@H](Cc1ccc(O)cc1)NC(=O)[C@@H]1CCCN1C(=O)[C@@H]1CCCN1C(=O)[C@H](CCCNC(=N)N)NC(=O)[C@@H]1CCCN1C(=O)[C@H](CCCNC(=N)N)NC(=O)[C@H](CCCNC(=N)N)NC(=O)[C@H](CCCNC(=N)N)NC(=O)c1ccc2c(c1)C(=O)OC21c2ccc(N(C)C)cc2Oc2cc(N(C)C)ccc21)C(=O)N1CCC[C@H]1C(=O)N1CCC[C@H]1C(=O)NCC(=O)N[C@@H](Cc1ccccc1)C(=O)N1CCC[C@H]1C(=O)N1CCC[C@H]1C(=O)N[C@@H](CCCNC(=N)N)C(=O)N[C@@H](Cc1ccccc1)C(=O)N1CCC[C@H]1C(=O)N1CCC[C@H]1C(=O)N[C@@H](CCCNC(=N)N)C(=O)N[C@@H](Cc1ccccc1)C(=O)N1CCC[C@H]1C(N)=O [5-TAMRA-PR-39] (5TAMRA-RRRPRPPYLPRPRPPPFFPPRLPPRIPPGFPPRFPPRFP-NH2; C-terminus assumed),MIC (mode MIC) of 5-TAMRA-labeled AMP derivatives,"MG1655, 20 h",2 µM
CC[C@@H](C)[C@@H](NC(=O)[C@@H](C)NC(=O)[C@@H](CCCNC(=N)N)NC(=O)[C@@H](Cc1c[nH]c2ccccc12)NC(=O)[C@@H](CCC(N)=O)NC(=O)[C@H](NC(=O)c1ccc2c(c1)C(=O)OC21c2ccc(N(C)C)cc2Oc2cc(N(C)C)ccc21)C(C)C)C(=O)N[C@H](CCCNC(=N)N)C(=O)N[C@@H](C(=O)N[C@H](CCCNC(=N)N)C(=O)N[C@@H](C(=O)N[C@@H](C(=O)N[C@H](CCCNC(=N)N)C(N)=O)[C@H](C)CC)C(C)C)C(C)C [5-TAMRA-DJK-5] (5TAMRA-[dV][dQ][dW][dR][dA][dI][dR][dV][dR][dV][dI][dR]-NH2; C-terminus assumed),MIC (mode MIC) of 5-TAMRA-labeled AMP derivatives,"MG1655, 20 h",2.5 µM
GLLRKGGEKIGEKLKKIGQKIKNFFQKLVPQPEQ [CRAMP],MIC (mode MIC),"E. coli MG1655, M9gluCAAT, 37°C, 20 h, inoculum ~250 cells/mL, max growth rate < 0.2 log(OD)/h, mode across three biological replicates with two technical replicates each",4 µM
CC[C@H](C)[C@H](NC(=O)[C@H](CCCCN)NC(=O)[C@H](CCC(=O)O)NC(=O)[C@H](CCCCN)NC(=O)[C@H](CO)NC(=O)[C@H](CCCCN)NC(=O)[C@H](CCCNC(=N)N)NC(=O)[C@H](Cc1ccccc1)NC(=O)[C@H](Cc1ccccc1)NC(=O)[C@H](CC(=O)O)NC(=O)CNC(=O)[C@H](CC(C)C)NC(=O)[C@H](CC(C)C)NC(=O)c1ccc2c(c1)C(=O)OC21c2ccc(N(C)C)cc2Oc2cc(N(C)C)ccc21)C(=O)NCC(=O)N[C@@H](CCCCN)C(=O)N[C@@H](CCC(=O)O)C(=O)N[C@@H](Cc1ccccc1)C(=O)N[C@@H](CCCCN)C(=O)N[C@@H](CCCNC(=N)N)C(=O)N[C@H](C(=O)N[C@H](C(=O)N[C@@H](CCC(N)=O)C(=O)N[C@@H](CCCNC(=N)N)C(=O)N[C@H](C(=O)N[C@@H](CCCCN)C(=O)N[C@@H](CC(=O)O)C(=O)N[C@@H](Cc1ccccc1)C(=O)N[C@@H](CC(C)C)C(=O)N[C@@H](CCCNC(=N)N)C(=O)N[C@@H](CC(N)=O)C(=O)N[C@@H](CC(C)C)C(=O)N[C@H](C(=O)N1CCC[C@H]1C(=O)N[C@@H](CCCNC(=N)N)C(=O)N[C@H](C(=O)N[C@@H](CCC(=O)O)C(=O)N[C@@H](CO)C(=O)O)[C@@H](C)O)C(C)C)[C@@H](C)CC)C(C)C)[C@@H](C)CC [5-TAMRA-LL-37],MIC (mode MIC) of 5-TAMRA-labeled AMP derivatives,[1],2 µM
"RSIRRPRLPRPRVPRPYIPPRIPRPVLPPPRFPIPRFPRGR [CamBac, camel bactenecin]",MIC (mode MIC),"MG1655, 20 h",0.5 µM
"CN[C@@H]1[C@H](O)[C@H](NC)[C@H]2O[C@@]3(O)C(=O)C[C@@H](C)O[C@H]3O[C@@H]2[C@H]1O [Spect, spectinomycin]","MIC (mode MIC), antibiotics",[1],64 µg/mL
"GIGKFLHSAKKFGKAFVGEIMNS [Mag2, magainin-2]",MIC (mode MIC),"MG1655, 20 h",40 µM
"CO[C@H]1/C=C/O[C@@]2(C)Oc3c(C)c(O)c4c(O)c(c(/C=N/N5CCN(C)CC5)c(O)c4c3C2=O)NC(=O)/C(C)=C\C=C\[C@H](C)[C@H](O)[C@@H](C)[C@@H](O)[C@@H](C)[C@H](OC(C)=O)[C@@H]1C [Rif, rifampicin]","MIC (mode MIC), antibiotics",[1],16 µg/mL
CC[C@H](C)[C@H](NC(=O)[C@H](CCCNC(=N)N)NC(=O)[C@H](CCCNC(=N)N)NC(=O)c1ccc2c(c1)C(=O)OC21c2ccc(N(C)C)cc2Oc2cc(N(C)C)ccc21)C(=O)N[C@@H](CCCNC(=N)N)C(=O)N1CCC[C@H]1C(=O)N[C@@H](CCCNC(=N)N)C(=O)N1CCC[C@H]1C(=O)N1CCC[C@H]1C(=O)N[C@@H](CCCNC(=N)N)C(=O)N[C@@H](CC(C)C)C(=O)N1CCC[C@H]1C(=O)N[C@@H](CCCNC(=N)N)C(=O)N1CCC[C@H]1C(=O)N[C@@H](CCCNC(=N)N)C(=O)N1CCC[C@H]1C(=O)N[C@@H](CCCNC(=N)N)C(=O)N1CCC[C@H]1C(=O)N[C@@H](CC(C)C)C(=O)N1CCC[C@H]1C(=O)N[C@@H](Cc1ccccc1)C(=O)N1CCC[C@H]1C(=O)N[C@@H](CCCNC(=N)N)C(=O)N1CCC[C@H]1C(=O)NCC(=O)N1CCC[C@H]1C(=O)N[C@@H](CCCNC(=N)N)C(=O)N1CCC[C@H]1C(=O)N[C@H](C(=O)N1CCC[C@H]1C(=O)N[C@@H](CCCNC(=N)N)C(=O)N1CCC[C@H]1C(=O)N[C@@H](CC(C)C)C(=O)N1CCC[C@H]1C(=O)N[C@@H](Cc1ccccc1)C(=O)N1CCC[C@H]1C(=O)O)[C@@H](C)CC [5-TAMRA-Bac7] (5TAMRA-RRIRPRPPRLPRPRPRPLPFPRPGPRPIPRPLPFP-OH; C-terminus assumed),MIC (mode MIC) of 5-TAMRA-labeled AMP derivatives,"MG1655, 20 h",0.6 µM
RRIPFWPPNWPGPWLPPWSPPDFRIPRILRKR [Tur1B],MIC (mode MIC),"MG1655, 20 h",8 µM

# Reference: paper doi:10.1101/2025.04.10.648262, “Time-resolved phenotyping at subcellular resolution reveals shared principles and key trade-offs across antimicrobial peptide activities” (bioRxiv, 2026)
